# Test results published in patent US11771661B2, “Method of treating post-traumatic stress disorder” (ICAHN SCHOOL OF MEDICINE AT MOUNT SINAI, priority 2013, dated 2023).
# Several values for one entry are separate records, joined by “and”; a condition that tells them apart may be missing. Identical values can stand only once.
# How the values were obtained:
# [1] = tested on: patients with treatment resistant depression (TRD), co-morbid current PTSD; experiment: Example 1: open-label ketamine infusion in treatment resistant depression patients, case studies with co-morbid PTSD; format: in vivo, human; conditions: for IES score: baseline 48
# Method: In a ketamine infusion study in patients with treatment resistant depression (TRD), ketamine (0.5 mg/kg IV) was administered open-label and combined with pre-infusion treatment with a single oral dose of lamotrigine (300 mg) or placebo administered under double-blind conditions. Preliminary analyses were recently performed on a sample of 16 patients. […] A strong positive correlation between individual childhood trauma (abuse and/or neglect) and the antidepressant response (MADRS: r=0.55, p=0.03; QIDS-SR: r=0.59, p=0.02).
# The effect of ketamine on Hamilton Anxiety Rating Scale (HAM-A) scores was also measured. A strong positive correlation between the magnitude of the ketamine-induced reduction in HAM-A scores and personal history of childhood trauma measured using the Childhood Trauma Questionnaire (CTQ; n=15, r=0.59, p=0.02) was observed. […] Patient A, suffered from distressing intrusive memories, nightmares, flashbacks, hypervigilance, poor concentration, and depressed mood. Patient A described their PTSD and MDD symptoms as chronic, but having intensified over time, due to ongoing events in their life.
# After observing the magnitude of the therapeutic effect of ketamine in Patient A, TRD patients with a co-morbid current PTSD diagnosis were administered the Clinician-Administered PTSD Scale (CAPS) and the Impact of Events Scale (IES) before and after ketamine infusion. […] The day after ketamine infusion, Patient M reported that they felt an “intellectual distance” from the emotional content of prior traumatic events that allowed them to feel more in control. Patient M further described feeling relieved of a compulsion to continuously analyze their past, identify ways in which they might have circumvented trauma, and subsequently punish themself for their failure to avoid trauma. One week post-infusion, Patient M's CAPS score had dropped by 90% and could be considered a remission (defined as CAPS<20). Two weeks post-infusion, Patient M maintained their “intellectual distance” from the emotional content associated with their trauma.
# [2] = tested on: treatment-resistant major depression; conditions: 0.5 mg/kg intravenous infusion over 40 minutes; cited from earlier work
# [3] = Side effects of IV administration of ketamine; format: in vivo, human
# Method: IV administration of ketamine can be on an as needed basis, e.g., when symptoms of PTSD appear. For IV administration, ketamine (e.g., doses of at least 0.5 mg/kg) may be administered over a period of 40 minutes. IV administration may be continued for up to 1 week, or longer. IV administration of ketamine may also be effected at least twice, at least three times, at least four times, at least five time, at least six times, at least seven times per week, and may be continued over a period of two, three, four, five, six, seven, eight, nine or 10 weeks, or more. […] Any side effects observed are typically mild, e.g., euphoria, elevated BP, increased libido, perceptual disturbances, and furthermore these effects typically abate within 80 minutes post-infusion.
# [4] = cited from earlier work
# [5] = IN vs IV; cited from earlier work
# [6] = tested on: patients with chronic PTSD; experiment: Example 2: side effects (PRISE, CADSS, BPRS, YMRS item 1) after IV infusion; format: in vivo, human
# Method: General side effects and possible dissociative, psychotomimetic, and manic symptoms were measured with the Patient-Rated Inventory of Side Effects (PRISE), Clinician-Administered Dissociative States Scale (CADSS), Brief Psychiatric Rating Scale (BPRS) and Young Mania Rating Scale (YMRS) item 1 (elevated mood), respectively.
# Secondary analyses also examined the effect of depression on PTSD symptoms and the interaction between treatment and depression. A mixed model approach was used to examine the effects of treatment, baseline MADRS score, and 24-hour MADRS score using only first-period data. Safety and tolerability were analyzed using descriptive statistics.
# [7] = tested on: patients with chronic PTSD; experiment: Example 2: randomized, double-blind, midazolam-controlled crossover trial of IV ketamine, symptom ratings; format: in vivo, human
# From the text: Patients with chronic PTSD were enrolled in a controlled study. […] Exclusion criteria included lifetime history of psychotic or bipolar disorder, current bulimia or anorexia nervosa, alcohol abuse or dependence in the previous three months, serious unstable medical illness or sleep apnea, active suicidal or homicidal ideation on presentation, or current use of any psychotropic medications. All patients underwent a physical examination and laboratory screening including routine hematologic, biochemical and urine toxicology testing, as well as an electrocardiogram to rule out unstable medical illness and active substance use. To receive the second IV infusion, a CAPS score of at least 50 was required prior to the second infusion. The Institutional Review Board at Mount Sinai approved the study, and informed consent was obtained from all study participants.
# Study participants were free of concomitant psychotropic medications for two weeks prior to randomization and for the duration of the study. For each procedure day, patients were assigned to receive a single IV infusion of ketamine hydrochloride (0.5 mg/kg) or midazolam (0.045 mg/kg), administered over 40 minutes. Order of infusions (ketamine-midazolam or midazolam-ketamine) was randomly assigned and administrations were two weeks apart. […] Only the research pharmacy was aware of drug identity, and all study personnel, including investigators, anesthesiologists, raters, patients and data analysts were blinded to randomization order.
# Following admission and an overnight fast, an indwelling catheter was placed in the antecubital vein of the non-dominant arm. Pulse, blood pressure, pulse-oximetry and ECG monitoring were instituted (see Murrough J et al. Antidepressant efficacy of ketamine in treatment-resistant major depression: a two-site, randomized controlled trial. The American Journal of Psychiatry. 2013 Oct. 1; 170(10):1134-42). Ratings were administered by a trained rater during the infusion and at 240 minutes after the start of the infusion. A different rater, blinded to the ratings during post-infusion on infusion, administered ratings at pre-infusion baseline, 24 hours (Day 1) post-infusion (before patients were discharged from the hospital), 48 hours (Day 2), 72 hours (Day 3), and 7 days (Day 7) post-infusion. Ratings were also administered at 10 and 13 days post-infusion, though data analyses focused on the first week post-infusion due to the expected duration of ketamine action. Patients were instructed to abstain from taking psychotropic medications and from using alcohol or substances of abuse for the duration of the trial. As described above, patients who scored ≥50 on the CAPS 2 weeks after the first infusion received an infusion of the second study drug.
# The primary outcome was PTSD symptom severity at 24 hours post-infusion, assessed with the Impact of Event Scale—Revised (IES-R). Twenty-four hours post-infusion was selected as the primary endpoint, as acute sedating and other side effects were expected to have resolved, while potential symptom improvement was expected to persist at 24 hours. Secondary outcome measures included the Montgomery-Asberg Depression Rating Scale (MADRS), the Quick Inventory of Depressive Symptomatology, Self-Report (QIDS-SR), and Clinical Global Impression-Severity (CGI-S) and -Improvement (GCI-I) scales administered by a study clinician at 24 hours, 48 hours, 72 hours and 7 days post-infusion. The IES-R was also administered at 48 hours, 72 hours, and 7 days post-infusion. Additionally, the CAPS was administered 7 days post-infusion.
# A mixed-model approach was employed to test effects of treatment, period, and carryover.
# breakthrough pain (BTP) = conditions: cited from earlier work
# NMDA receptors = conditions: read-out: Ki, binding to NMDA receptors; cited from earlier work
# [8] = 0.5 mg/kg IV open-label, 16 TRD patients
# [9] = by treatment group (drug given first)
# [10] = individual responder patients, after first infusion
# [11] = ketamine vs midazolam, cross-over 24 hours, n = 29
# [12] = ketamine vs midazolam, first infusion 24 hours, n = 41
# [13] = response = 50% improvement in IES-R score at 24 hours post-infusion
compound,measurement,setting,value
"CNC1(c2ccccc2Cl)CCCCC1=O (stereo not shown) [ketamine, 2-(2-chlorophenyl)-2-(methylamino)-cyclohexanone]","MADRS clinical depression scores, baseline to 24 hours post-infusion",[1]; [8],reduced clinical depression scores
same,"self-reported mood, QIDS-SR",[1]; [8],improved
same,IES score,"[1]; Patient M, +1 week",5
same,CAPS score,"[1]; Patient M, +1 week, baseline 81",8
same,IES score,"[1]; Patient M, +2 weeks",15
same,CAPS score,"[1]; Patient M, +2 weeks, baseline 81",27
same,IES score,"[1]; Patient M, +40 min post-ketamine",33
same,IES score,"[1]; Patient M, +240 min",3
same,IES score,"[1]; Patient M, +24 hours",16
same,IES score,"[1]; Patient M, +72 hours",5
same,drop in CAPS score,"[1]; Patient M, one week post-infusion, baseline 81",90%
same,duration of improvements in depression,[2],up to 1 week
same,serious adverse events,[2],no serious adverse events
same,time to improvements in depression post-injection,[2],≤ 2 h
same,serious adverse events caused by IV administration,[3],No serious adverse events
same,time by which mild side effects typically abate post-infusion,[3],≤ 80 min
same,"dose at which mild adverse effects (dysphoria, hallucinations) can occur",[4]; in vivo,greater than 50 mg
same,total intranasal dose usually required for mild adverse effects,[4]; intranasal,greater than 100 mg
same,intranasal plasma levels (pain treatment) lower than intravenous ketamine studies in depression,[5],3-4 fold
same,psychotic or manic symptoms,"[6]; BPRS, YMRS item 1",No emergence of significant psychotic or manic symptoms
same,patients requiring acute beta-blocker treatment for blood pressure elevation,"[6]; during infusion, systolic >180 and/or diastolic >100",Three
same,time by which dissociative symptoms had resolved,[6]; from start of infusion,≤ 120 min
same,time of peak of dissociative symptoms,[6]; from start of infusion,40 min
same,safety and tolerability,[6]; single dose IV,safe and well-tolerated
same,"CAPS score, mean difference ketamine-midazolam","[7]; 7 days post-infusion, p-value=0.20",8.7
same,decrease in CAPS score,"[7]; at 7 days, single infusion study",27 (sd=20)
same,"CAPS Total (Week 1), mean",[7]; [9],54.00
same,"CAPS Total (Week 2), mean",[7]; [9],56.21
same,"CGI-I (Week 1), mean",[7]; [9],3.22
same,"CGI-I (Week 2), mean",[7]; [9],3.15
same,"IES-R Total (Week 1), mean",[7]; [9],25.76
same,"IES-R Total (Week 2), mean",[7]; [9],25.67
same,CAPS Total (Week 1),[7]; [10],16 and 45 and 41 and 33 and 54 and 22 and 13
same,CAPS Total (Week 2),[7]; [10],11 (2×) and 25 and 28 and 19 and 44 and 45
same,CGI-I (Week 1),[7]; [10],2 (5×) and 3
same,CGI-I (Week 2),[7]; [10],2 (3×) and 3
same,IES-R Total (Day 10),[7]; [10],4 and 3 (3×) and 15 and 25.14 and 28
same,IES-R Total (Week 1),[7]; [10],1 and 8.38 and 10 and 2 and 18 and 17 and 3
same,IES-R Total (Week 2),[7]; [10],6 and 1 and 14 and 0 and 26 and 28 and 2
same,"IES-R, differences of least squares means estimate","[7]; ketamine vs midazolam, collapsed across 24, 48, 72 hours and seven days, first period, p=0.046",−8.32
same,"QIDS-SR, differences of least squares means estimate","[7]; ketamine vs midazolam, collapsed across time, first period, p=0.050",−2.73
same,"MADRS, differences of least squares means estimate","[7]; ketamine vs midazolam, collapsed across time, first period, p=0.052",−3.99
same,"CGI-I, mean difference",[7]; [11],1.2
same,"CGI-S, mean difference",[7]; [11],1.0
same,"IES-R Avoidance, mean difference",[7]; [11],4.8
same,"IES-R Hyperarousal, mean difference",[7]; [11],3.9
same,"IES-R Re-experiencing, mean difference",[7]; [11],4.0
same,"IES-R total, mean difference",[7]; [11],12.7
same,"MADRS, mean difference",[7]; [11],3.7
same,"QIDS, mean difference",[7]; [11],0.17
same,"CGI-I, mean difference",[7]; [12],0.80
same,"CGI-S, mean difference",[7]; [12],0.90
same,"IES-R Avoidance, mean difference",[7]; [12],3.3
same,"IES-R Hyperarousal, mean difference",[7]; [12],2.6
same,"IES-R Re-experiencing, mean difference",[7]; [12],2.6
same,"IES-R total, mean difference",[7]; [12],8.6
same,"MADRS, mean difference",[7]; [12],2.7
same,"QIDS, mean difference",[7]; [12],1.5
same,"IES-R_response No, Percent of total",[7]; of all 35 patients,25.71%
same,"IES-R_response Yes, Percent of total",[7]; of all 35 patients,28.57%
same,β of treatment assignment on IES-R score at 24 hours post-infusion,"[7]; period-1 analysis, 41 patients, ketamine vs midazolam, p=0.0496",6.5
same,"IES-R_response No, Frequency",[7]; [13],9
same,"IES-R_response Yes, Frequency",[7]; [13],10
same,"IES-R_response No, Row Pct",[7]; share of non-responders,45.00 Pct
same,"IES-R_response Yes, Row Pct",[7]; share of responders,66.67 Pct
same,"IES-R_response No, Col Pct",[7]; share of the treatment group,47.37 Pct
same,"IES-R_response Yes, Col Pct (responded after infusion)","[7]; share of the treatment group, 24 hours post-infusion",52.63%
same,breakthrough pain vs placebo,breakthrough pain (BTP); 10-50 mg intranasal in incremental 10 mg doses every 90 seconds,lower BTP
same,side effects,breakthrough pain (BTP); 10-50 mg intranasal,very few side effects
CN[C@@]1(c2ccccc2Cl)CCCCC1=O [R(−)],Ki,NMDA receptors,1.1 µM
